Measurements: the supplement of paper PMC10307832

Experiments:
Assay in all cases: relative viability (nuclei count vs DMSO), 5 days (fraction); higher = more cells survive
Vemurafenib + Pictilisib = compound: CCCS(=O)(=O)Nc1ccc(F)c(C(=O)c2c[nH]c3ncc(-c4ccc(Cl)cc4)cc23)c1F [Vemurafenib] + CS(=O)(=O)N1CCN(Cc2cc3nc(-c4cccc5[nH]ncc45)nc(N4CCOCC4)c3s2)CC1 [Pictilisib] (partner 1 µM)
Procedure, shortened: (§1)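 Values are medians from duplicate plates. Each reflects relative viability, defined as the nuclei count of treated wells over that of vehicle wells. Lung cancer cell lines in 1536-well plates were pin-tool dosed one day after seeding with one drug alone or with a fixed anchor-drug dose plus five library-drug doses (not always all listed) in √10 steps, then fixed, stained and imaged at 4× after 5 days.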

Alpelisib + Foretinib = compound: Cc1nc(NC(=O)N2CCC[C@H]2C(N)=O)sc1-c1ccnc(C(C)(C)C(F)(F)F)c1 [Alpelisib] + COc1cc2c(Oc3ccc(NC(=O)C4(C(=O)Nc5ccc(F)cc5)CC4)cc3F)ccnc2cc1OCCCN1CCOCC1 [Foretinib] (partner 0.25 µM)
Procedure, shortened: as §1

Vemurafenib + Pemetrexed = compound: CCCS(=O)(=O)Nc1ccc(F)c(C(=O)c2c[nH]c3ncc(-c4ccc(Cl)cc4)cc23)c1F [Vemurafenib] + Nc1nc2[nH]cc(CCc3ccc(C(=O)N[C@@H](CCC(=O)O)C(=O)O)cc3)c2c(=O)[nH]1 [Pemetrexed] (partner 0.2 µM)
Procedure, shortened: as §1

OSI-027 + Luminespib = compound: COc1cccc2cc(-c3nc([C@H]4CC[C@H](C(=O)O)CC4)n4ncnc(N)c34)[nH]c12 [OSI-027] + CCNC(=O)c1noc(-c2cc(C(C)C)c(O)cc2O)c1-c1ccc(CN2CCOCC2)cc1 [Luminespib] (partner 0.01 µM)
Procedure, shortened: as §1

| Cell Line | relative viability (Vemurafenib + Pictilisib; first compound 0.03162 µM) | relative viability (Vemurafenib + Pictilisib; first compound 0.1 µM) | relative viability (Vemurafenib + Pictilisib; first compound 0.3162 µM) | relative viability (Vemurafenib + Pictilisib; first compound 1 µM) | relative viability (Alpelisib + Foretinib; first compound 0.04 µM) | relative viability (Alpelisib + Foretinib; first compound 0.1265 µM) | relative viability (Alpelisib + Foretinib; first compound 0.4 µM) | relative viability (Alpelisib + Foretinib; first compound 1.265 µM) | relative viability (Alpelisib + Foretinib; first compound 4 µM) | relative viability (Vemurafenib + Pemetrexed; first compound 0.03162 µM) | relative viability (Vemurafenib + Pemetrexed; first compound 0.1 µM) | relative viability (Vemurafenib + Pemetrexed; first compound 0.3162 µM) | relative viability (Vemurafenib + Pemetrexed; first compound 1 µM) | relative viability (OSI-027 + Luminespib; first compound 0.01 µM) | relative viability (OSI-027 + Luminespib; first compound 0.03162 µM) | relative viability (OSI-027 + Luminespib; first compound 0.1 µM) | relative viability (OSI-027 + Luminespib; first compound 0.3162 µM) | relative viability (OSI-027 + Luminespib; first compound 1 µM) |
| --- | --- | --- | --- | --- | --- | --- | --- | --- | --- | --- | --- | --- | --- | --- | --- | --- | --- | --- |
| IA-LM | 0.309 | 0.358 | 0.758 | 0.476 | 1.03 | 1.31 | 1.11 | 1.12 | 1.13 | – | – | – | – | – | – | – | – | – |
| NCI-H1650 | 0.487 | – | 0.581 | 0.601 | 1.09 | 1.1 | 1.35 | 0.867 | 1.15 | 0.343 | 0.316 | 0.343 | 0.351 | 0.208 | 0.234 | 0.208 | 0.214 | 0.219 |
| NCI-H322M | 0.552 | – | 0.719 | 0.572 | 0.909 | 0.867 | 0.927 | 0.619 | 0.678 | 0.587 | – | 0.597 | 0.537 | 0.84 | 0.831 | 0.66 | 0.446 | 0.369 |
| SW 1573 | 0.475 | 0.511 | 0.585 | 0.52 | 0.854 | 0.713 | 0.823 | 0.696 | 0.724 | 0.872 | 0.777 | 0.798 | 0.832 | 0.235 | 0.19 | 0.184 | 0.214 | 0.13 |
| HCC-827 | 0.791 | – | 1.03 | 0.981 | 1 | 1.05 | 0.968 | 0.964 | 0.746 | 0.273 | – | 0.287 | 0.238 | 0.775 | 0.75 | 0.51 | 0.337 | 0.171 |
| LU99A | 0.282 | 0.311 | 0.297 | 0.286 | 0.746 | 0.832 | 0.722 | 0.661 | 0.503 | 0.229 | 0.196 | – | 0.199 | 0.25 | 0.221 | 0.288 | 0.22 | 0.192 |
| LK-2 | 0.618 | 0.49 | 0.661 | 0.425 | 1.07 | 1.19 | 1.28 | 0.906 | 0.932 | 0.247 | 0.274 | 0.26 | 0.304 | 0.172 | 0.193 | 0.159 | 0.173 | 0.137 |
| NCI-H2342 | – | – | – | – | 1.01 | 1.08 | 1.07 | 0.767 | 0.753 | 0.75 | 0.834 | 0.684 | 0.784 | 0.783 | 0.616 | 0.82 | 0.617 | 0.514 |
| NCI-H727 | 0.353 | 0.32 | 0.568 | 0.315 | 0.897 | 0.772 | 0.771 | 0.645 | 0.676 | – | – | – | – | 0.444 | 0.328 | 0.381 | 0.318 | 0.479 |
| EBC-1 | 0.36 | 0.335 | 0.335 | 0.36 | 0.101 | 0.0979 | 0.0957 | 0.108 | 0.114 | – | – | – | – | – | – | – | – | – |
| Calu-6 | 0.888 | 0.902 | 0.741 | 0.822 | 0.926 | 0.842 | 0.931 | 0.871 | 0.617 | – | – | – | – | – | – | – | – | – |
| SW 900 | – | – | – | – | 1.22 | 0.991 | 0.79 | 0.885 | 0.843 | 0.494 | 0.466 | 0.457 | 0.478 | – | 0.153 | 0.169 | 0.171 | 0.163 |
| HCC-366 | 0.137 | 0.15 | – | 0.163 | 0.887 | 0.939 | 0.868 | 0.861 | 0.349 | 0.178 | 0.166 | – | 0.151 | – | – | – | – | – |
| NCI-H1792 | 0.272 | 0.249 | 0.259 | 0.234 | – | – | – | – | – | 0.59 | 0.787 | – | 0.747 | 0.737 | 0.268 | 0.37 | 0.422 | 0.18 |
| NCI-H522 | – | – | – | – | – | – | – | – | – | 0.855 | 0.98 | 0.867 | 1.2 | 1.2 | 1.25 | 1.19 | 0.698 | 0.58 |
| NCI-H1623 | – | – | – | – | 0.833 | 0.744 | 0.845 | 0.54 | 0.494 | – | – | – | – | 0.511 | 0.423 | 0.322 | 0.323 | 0.202 |
| ABC-1 | 0.751 | 0.536 | 0.658 | 0.753 | 1.28 | 0.876 | 0.878 | 0.611 | 0.78 | – | – | – | – | – | 0.321 | 0.405 | 0.377 | 0.386 |
| NCI-H1648 | – | – | – | – | – | – | – | – | – | – | 0.671 | 1.01 | 0.748 | – | – | – | – | – |
| NCI-H1299 | 0.732 | 0.719 | 0.843 | 0.622 | 1.12 | 1.12 | 1.19 | 0.978 | 1.12 | – | – | – | – | – | – | – | – | – |
| NCI-H1703 | 0.245 | 0.21 | 0.233 | 0.252 | 0.295 | 0.362 | 0.381 | 0.271 | 0.303 | – | – | – | – | – | – | – | – | – |
| A549 | 0.532 | 0.43 | 0.607 | 0.453 | 0.926 | 0.875 | 0.956 | 0.662 | 0.599 | – | – | – | – | – | – | – | – | – |
| HCC-44 | 0.443 | 0.5 | 0.478 | 0.646 | – | – | – | – | – | 0.617 | 0.609 | 0.654 | 0.625 | 1.33 | 0.89 | 0.903 | 0.759 | 0.512 |
| HCC-78 | 0.222 | 0.214 | 0.429 | 0.185 | 0.495 | 0.426 | 0.493 | 0.353 | 0.366 | 0.925 | 0.922 | 0.932 | 0.921 | – | – | – | – | – |
